# According to patent US20250034110A1, “LPAR1 ANTAGONISTS AND USES THEREOF” (Pipeline Therapeutics, Inc., priority 2021, published 2025):
# Biological target: human LPAR1 (Homo sapiens, UniProt Q92633)
# Experiment: In vitro functional assay of lysophosphatidic acid receptor 1 activity (calcium flux)
# Type: cell-based
# Details: B103 cells stably expressing human LPAR1; calcium flux (Fluo-4 NW) after lysophosphatidic acid (18:1) at EC80; 100 pM to 10 μM; read-out: LPAR1 IC50
# Chain of human LPAR1 (Q92633 whole entry): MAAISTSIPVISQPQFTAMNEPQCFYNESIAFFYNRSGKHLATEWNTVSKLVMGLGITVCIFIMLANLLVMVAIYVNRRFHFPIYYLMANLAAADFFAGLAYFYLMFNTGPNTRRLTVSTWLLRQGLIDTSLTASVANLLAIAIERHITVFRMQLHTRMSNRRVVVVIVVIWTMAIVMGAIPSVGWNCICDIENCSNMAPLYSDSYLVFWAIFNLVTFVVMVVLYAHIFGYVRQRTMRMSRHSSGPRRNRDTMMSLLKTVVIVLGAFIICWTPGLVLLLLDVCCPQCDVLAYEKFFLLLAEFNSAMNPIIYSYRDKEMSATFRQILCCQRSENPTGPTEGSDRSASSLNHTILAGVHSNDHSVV
row,SMILES,IC50 [nM]
1,"COc1ccc(NC(=O)N(c2ccccc2C(C)C)[C@@H]2CCN(C3COC3)C2)c(OC(F)F)n1 [Example 37, (R)-3-(2-(difluoromethoxy)-6-methoxypyridin-3-yl)-1-(2-isopropylphenyl)-1-(1-(oxetan-3-yl)pyrrolidin-3-yl)urea]",100 to 1000
2,"COc1ccc(NC(=O)N(c2ccccc2C(C)C)[C@H]2CCN(C3COC3)C2)c(OC(F)F)n1 [Example 38, (S)-3-(2-(difluoromethoxy)-6-methoxypyridin-3-yl)-1-(2-isopropylphenyl)-1-(1-(oxetan-3-yl)pyrrolidin-3-yl)urea]",100 to 1000
3,"COc1ccc(NC(=O)N(c2ccccc2C(C)C)[C@H]2CC[C@@H](OC)CC2)c(OC(F)F)n1 [Example 39, 3-(2-(difluoromethoxy)-6-methoxypyridin-3-yl)-1-(2-isopropylphenyl)-1-((1s,4s)-4-methoxycyclohexyl)urea]",100 to 1000
4,"COc1ccc(NC(=O)N(c2ccccc2C(C)C)[C@H]2CC[C@H](OC)CC2)c(OC(F)F)n1 [Example 40, 3-(2-(difluoromethoxy)-6-methoxypyridin-3-yl)-1-(2-isopropylphenyl)-1-((1r,4r)-4-methoxycyclohexyl)urea]",10 to 100
5,"COc1ccc(NC(=O)N(c2ccccc2C(C)C)C2CN(C(C)=O)C2)c(OC(F)F)n1 [Example 41, 1-(1-acetylazetidin-3-yl)-3-(2-(difluoromethoxy)-6-methoxypyridin-3-yl)-1-(2-isopropylphenyl)urea]",100 to 1000
6,"COc1ccc(NC(=O)N(c2ccccc2C(C)C)C2CCCN(C(C)=O)C2)c(OC(F)F)n1 (stereo not drawn) [Example 43, 1-(1-acetylpiperidin-3-yl)-3-(2-(difluoromethoxy)-6-methoxypyridin-3-yl)-1-(2-isopropylphenyl)urea]",100 to 1000
7,"COc1ccc(NC(=O)N(c2ccccc2C(C)C)C2CCN(C)C(=O)C2)c(OC(F)F)n1 (stereo not drawn) [Example 44, 3-(2-(difluoromethoxy)-6-methoxypyridin-3-yl)-1-(2-isopropylphenyl)-1-(1-methyl-2-oxopiperidin-4-yl)urea]",10 to 100
8,"COc1ccc(NC(=O)N(c2ccccc2C(C)C)C2CCCN(C)C2=O)c(OC(F)F)n1 (stereo not drawn) [Example 45, 3-(2-(difluoromethoxy)-6-methoxypyridin-3-yl)-1-(2-isopropylphenyl)-1-(1-methyl-2-oxopiperidin-3-yl)urea]",100 to 1000
9,"CC(=O)N1CC(N(C(=O)Nc2ccc(C)nc2OC(F)F)c2ccccc2C(C)C)C1 [Example 67, 1-(1-acetylazetidin-3-yl)-3-(2-(difluoromethoxy)-6-methylpyridin-3-yl)-1-(2-isopropylphenyl)urea]",10 to 100
10,"CC(=O)N1CC[C@H](N(C(=O)Nc2ccc(C)nc2OC(F)F)c2ccccc2C(C)C)C1 [Example 68, (S)-1-(1-acetylpyrrolidin-3-yl)-3-(2-(difluoromethoxy)-6-methylpyridin-3-yl)-1-(2-isopropylphenyl)urea]",10 to 100
11,"CC(=O)N1CC2(CC(N(C(=O)Nc3ccc(C)nc3OC(F)F)c3ccccc3C(C)C)C2)C1 [Example 70, 1-(2-acetyl-2-azaspiro[3.3]heptan-6-yl)-3-(2-(difluoromethoxy)-6-methylpyridin-3-yl)-1-(2-isopropylphenyl)urea]",100 to 1000
12,"CC(=O)N1CC[C@@H]1CN(C(=O)Nc1ccc(C)nc1OC(F)F)c1ccccc1C(C)C [Example 71, (R)-1-((1-acetylazetidin-2-yl)methyl)-3-(2-(difluoromethoxy)-6-methylpyridin-3-yl)-1-(2-isopropylphenyl)urea]",> 1000

# Same assay, conditions: LPAR1 IC50
row,SMILES,IC50 [nM]
1,"CC(=O)N1CCC(N(C(=O)Nc2ccc(C)nc2OC(F)F)c2cccnc2C(C)C)CC1 [Example 31, 1-(1-acetylpiperidin-4-yl)-3-(2-(difluoromethoxy)-6-methylpyridin-3-yl)-1-(2-isopropylpyridin-3-yl)urea]",100 to 1000
2,"CC(=O)N1CCC(N(C(=O)Nc2ccc(C)nc2OC(F)F)c2cccc(C(C)C)c2)CC1 [Example 32, 1-(1-acetylpiperidin-4-yl)-3-(2-(difluoromethoxy)-6-methylpyridin-3-yl)-1-(3-isopropylphenyl)urea]",100 to 1000
3,"CC(=O)N1CCC(N(C(=O)Nc2ccc(C)nc2OC(F)F)c2cccc(C)c2)CC1 [Example 33, 1-(1-acetylpiperidin-4-yl)-3-(2-(difluoromethoxy)-6-methylpyridin-3-yl)-1-(m-tolyl)urea]",> 1000
4,"CC(=O)N1CCC(N(C(=O)Nc2ccc(C)nc2OC(F)F)c2ccccc2C(F)F)CC1 [Example 34, 1-(1-acetylpiperidin-4-yl)-3-(2-(difluoromethoxy)-6-methylpyridin-3-yl)-1-(2-(difluoromethyl)phenyl)urea]",> 1000
5,"COC(C)c1ccccc1N(C(=O)Nc1ccc(C)nc1OC(F)F)C1CCN(C(C)=O)CC1 (stereo not drawn) [Example 35, 1-(1-acetylpiperidin-4-yl)-3-(2-(difluoromethoxy)-6-methylpyridin-3-yl)-1-(2-(1-methoxyethyl)phenyl)urea]",100 to 1000
6,"CC(=O)N1CCC(N(C(=O)Nc2ccc(C)nc2OC(F)F)c2cnccc2C(C)C)CC1 [Example 36, 1-(1-acetylpiperidin-4-yl)-3-(2-(difluoromethoxy)-6-methylpyridin-3-yl)-1-(4-isopropylpyridin-3-yl)urea]",100 to 1000
7,"COc1ccc(NC(=O)N(c2cccc(C)c2C)C2CCN(C(C)=O)CC2)c(OC(F)F)n1 [Example 42, 1-(1-acetylpiperidin-4-yl)-3-(2-(difluoromethoxy)-6-methoxypyridin-3-yl)-1-(2,3-dimethylphenyl)urea]",100 to 1000
8,"COc1ccc(NC(=O)N(c2ccccc2C(C)C)[C@H]2CCN(C(C)=O)C[C@H]2F)c(OC(F)F)n1 [Example 48, 1-((3R,4S)-1-acetyl-3-fluoropiperidin-4-yl)-3-(2-(difluoromethoxy)-6-methoxypyridin-3-yl)-1-(2-isopropylphenyl)urea]",10 to 100
9,"COc1ccc(NC(=O)N(c2ccccc2C(C)C)[C@@H]2CCN(C(C)=O)C[C@@H]2F)c(OC(F)F)n1 [Example 49, 1-((3S,4R)-1-acetyl-3-fluoropiperidin-4-yl)-3-(2-(difluoromethoxy)-6-methoxypyridin-3-yl)-1-(2-isopropylphenyl)urea]",10 to 100
10,"COc1ccc(NC(=O)N(c2ccccc2C(C)C)C2C3CC2CN(C(C)=O)C3)c(OC(F)F)n1 (stereo not drawn) [Example 53, 1-(3-acetyl-3-azabicyclo[3.1.1]heptan-6-yl)-3-(2-(difluoromethoxy)-6-methoxypyridin-3-yl)-1-(2-isopropylphenyl)urea]",100 to 1000
11,"COc1ccc(NC(=O)N(c2ccccc2C(C)C)[C@@H]2C[C@H]3CC[C@@H](C2)N3C(C)=O)c(OC(F)F)n1 [Example 54, 1-((1R,3s,5S)-8-acetyl-8-azabicyclo[3.2.1]octan-3-yl)-3-(2-(difluoromethoxy)-6-methoxypyridin-3-yl)-1-(2-isopropylphenyl)urea]",10 to 100
12,"COc1ccc(NC(=O)N(c2ccccc2C(C)C)[C@@H]2C[C@H]3CC[C@@H](C2)N3C(C)=O)c(OC(F)F)n1 [Example 55, 1-((1R,3r,5S)-8-acetyl-8-azabicyclo[3.2.1]octan-3-yl)-3-(2-(difluoromethoxy)-6-methoxypyridin-3-yl)-1-(2-isopropylphenyl)urea]",100 to 1000
13,"COc1ccc(NC(=O)N(c2ccccc2C(C)C)[C@@H]2[C@@H]3CC[C@H]2CN(C(C)=O)C3)c(OC(F)F)n1 [Example 56, 1-((1R,5S,8s)-3-acetyl-3-azabicyclo[3.2.1]octan-8-yl)-3-(2-(difluoromethoxy)-6-methoxypyridin-3-yl)-1-(2-isopropylphenyl)urea]",100 to 1000
14,"COc1ccc(NC(=O)N(c2ccccc2C(C)C)C2CC3CC2CN3C(C)=O)c(OC(F)F)n1 (stereo not drawn) [Example 57, 1-(2-acetyl-2-azabicyclo[2.2.1]heptan-5-yl)-3-(2-(difluoromethoxy)-6-methoxypyridin-3-yl)-1-(2-isopropylphenyl)urea]",100 to 1000
15,"COc1ccc(NC(=O)N(c2ccccc2C(C)C)[C@@H]2C[C@H]3C[C@@H]2CN3C(C)=O)c(OC(F)F)n1 [Example 58, 1-((1R,4R,5R)-2-acetyl-2-azabicyclo[2.2.1]heptan-5-yl)-3-(2-(difluoromethoxy)-6-methoxypyridin-3-yl)-1-(2-isopropylphenyl)urea]",> 1000
16,"COc1ccc(NC(=O)N(c2ccccc2C(C)C)C23CCN(C(C)=O)CC2C3)c(OC(F)F)n1 (stereo not drawn) [Example 61, 1-(3-acetyl-3-azabicyclo[4.1.0]heptan-6-yl)-3-(2-(difluoromethoxy)-6-methoxypyridin-3-yl)-1-(2-isopropylphenyl)urea]",10 to 100
17,"COC(=O)N1CCC(N(C(=O)Nc2ccc(OC)nc2OC(F)F)c2ccccc2C(C)C)CC1 [Example 63, methyl 4-(3-(2-(difluoromethoxy)-6-methoxypyridin-3-yl)-1-(2-isopropylphenyl)ureido)piperidine-1-carboxylate]",10 to 100
18,"CNC(=O)N1CCC(N(C(=O)Nc2ccc(OC)nc2OC(F)F)c2ccccc2C(C)C)CC1 [Example 64, 4-(3-(2-(difluoromethoxy)-6-methoxypyridin-3-yl)-1-(2-isopropylphenyl)ureido)-N-methylpiperidine-1-carboxamide]",10 to 100
19,"COc1ccc(NC(=O)N(c2ccccc2C(C)C)C2CCN(C(N)=O)CC2)c(OC(F)F)n1 [Example 65, 4-(3-(2-(difluoromethoxy)-6-methoxypyridin-3-yl)-1-(2-isopropylphenyl)ureido)piperidine-1-carboxamide]",10 to 100
20,"CC(=O)N1CCC(N(C(=O)Nc2ccc(C)nc2OC(F)F)c2ccccc2C(C)C)CC1 [Example 66, 1-(1-acetylpiperidin-4-yl)-3-(2-(difluoromethoxy)-6-methylpyridin-3-yl)-1-(2-isopropylphenyl)urea]",< 10
21,"CC(=O)N1C[C@@H]2[C@H](C1)[C@H]2N(C(=O)Nc1ccc(C)nc1OC(F)F)c1ccccc1C(C)C [Example 69, 1-((1R,5S,6s)-3-acetyl-3-azabicyclo[3.1.0]hexan-6-yl)-3-(2-(difluoromethoxy)-6-methylpyridin-3-yl)-1-(2-isopropylphenyl)urea]",100 to 1000
